{"source": "patent US20060193925A1", "about": "“Side effect-relieving agents and/or hypoglycemic effect enhancers for thiazolidine compounds” (KANEBO, LIMITED, priority 2001, published 2006)", "assay_type_in_all_cases": "in vivo", "key": {"[1]": {"assay": "Test Example 1: body weight gain inhibiting effect", "conditions": "KKA^y mice, 8/group, in powder diet, pioglitazone 5 mg/kg/day, extract powder of Preparation Example 1 1.5 g/kg/day", "source_text": "(§1) Divided into groups of 8 mice, 7-week old KKA^y mice which were genetically obese diabetic animals were used. Group (a) was fed only on a powder diet (CE-2, produced by Clea Japan, Inc.) for 5 weeks, and Group (b), Group (c) and Group (d) were given pioglitazone, the extract powder of Preparation Example 1, and pioglitazone and the extract powder of Preparation Example 1, respectively, for 5 weeks by preparing a powder diet so that the daily dose of each therein was of the values shown in Table 1. During the period of the test, body weights were measured, and the formulation of the diet were adjusted in accordance with an increase or decrease in body weight to keep the doses per day in Group (b) and Group (d) constant.\nThe results were evaluated by comparing the body weight gain observed in each of Groups (a), (b), (c) and (d) (Student's t-test)."}, "KKA^y mice [2]": {"tested_on": "KKA^y mice", "assay": "Test Example 2: hypoglycemic effect (blood glucose level in serum)", "conditions": "in powder diet, pioglitazone 5 mg/kg/day, extract powder of Preparation Example 1 1.5 g/kg/day", "source_text": "as §1\nTests were carried out in the same manner as in Test Example 1. The blood was collected 1 week and 5 weeks after commencement of the administration, and the serum was separated to measure the blood glucose levels."}, "[3]": {"assay": "Test Example 3: body weight gain inhibiting effect", "conditions": "KKA^y mice, 7/group, in powder diet, pioglitazone 5 mg/kg/day, extract powder of Preparation Example 2 6.4 g/kg/day", "protocol": "(§2) Divided into groups of 7 mice, 7-week old KKA^y mice which were genetically obese diabetic animals were used, and the tests were carried out in the same manner as in Test Example 1, except Group (c) and (d) were given the extract powder of Preparation Example 2, and pioglitazone and the extract powder of Preparation Example 2, respectively, for 4 weeks by preparing the powder diet so that the daily dose each therein was of the values shown in Table 4.\nThe results were evaluated in the same manner as in Test Example 1."}, "KKA^y mice [4]": {"tested_on": "KKA^y mice", "assay": "Test Example 4: hypoglycemic effect (blood glucose level in serum)", "conditions": "in powder diet, pioglitazone 5 mg/kg/day, extract powder of Preparation Example 2 6.4 g/kg/day", "protocol": "as §2\nThe test was carried out in the same manner as in Test Example 3. The blood was collected 1 week and 4 weeks after commencement of the administration, and the serum was separated to measure the blood glucose levels.\nThe results were evaluated in the same manner as in Test Example 2."}}, "note": "Structures can show the parent of a compound that is named as a salt.", "data": [{"molecule": "CCc1ccc(CCOc2ccc(CC3SC(=O)NC3=O)cc2)nc1", "note": "(centres unmarked) [Pioglitazone, pioglitazone hydrochloride]", "values": [{"measurement": "Body weight gain, 1 week after administration", "setting": "[1]; 1 week", "value": "5.2 ± 0.2", "unit": "g"}, {"measurement": "Body weight gain, 5 weeks after administration", "setting": "[1]; 5 weeks", "value": "11.8 ± 0.6", "unit": "g"}, {"measurement": "Blood glucose level, 1 week after the administration", "setting": "KKA^y mice [2]; 1 week", "value": "404 ± 28", "unit": "mg/dL"}, {"measurement": "Blood glucose level, 5 weeks after the administration", "setting": "KKA^y mice [2]; 5 weeks", "value": "527 ± 18", "unit": "NS mg/dl"}, {"measurement": "Body weight gain, 1 week after administration", "setting": "[3]; 1 week", "value": "5.3 ± 0.4", "unit": "g"}, {"measurement": "Body weight gain, 4 weeks after administration", "setting": "[3]; 4 weeks", "value": "10.7 ± 0.5", "unit": "g"}, {"measurement": "Blood glucose level, 1 week after the administration", "setting": "KKA^y mice [4]; 1 week", "value": "320 ± 30", "unit": "mg/dL"}, {"measurement": "Blood glucose level, 4 weeks after the administration", "setting": "KKA^y mice [4]; 4 weeks", "value": "587 ± 24", "unit": "NS mg/dl"}]}]}
